Drawing on patent US20260315464A1, “COMPOSITIONS, METHODS, AND SYSTEMS FOR MODULATING SPLICING OF MSH3” (REVIR THERAPEUTICS, INC., priority 2023, published 2026), this text covers mrna remaining and EC50 for nine compounds.

Structures are written as SMILES.

For this assay, the system named is MSH3. The assay can be described thus: QPCR assay for levels of MSH3 upon compound treatment in HEK293T or AD293 cells (fold-change of MSH3 transcript, EC50 of MSH3 downregulation; total MSH3 exons 13/14, exons 20/21; Table 8). Format: cell-based. As to conditions: for mrna remaining at 1 µM / mrna remaining at 10 µM: Homo sapiens, fold-change of the MSH3 transcript, normalized to GAPDH; for mrna remaining at 1 µM: 1 μM compound; for mrna remaining at 10 µM: 10 μM compound. In outline: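 MSH3 mRNA was quantified by TaqMan qPCR covering exons 13/14, exons 20/21, exon 13/PE14A and exon 20/PE21A, with GAPDH as reference. Cells used were HEK293T or AD293, treated with compound at 1 μM and […].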

As for `Cc1nn(C)cc1-c1ccc2c(c1)C(=O)N(c1ccc(OC3CC(C)(C)NC4(CC4)C3)nn1)C2` (stereo not shown) [Compound 438, 6-(1,3-dimethyl-1H-pyrazol-4-yl)-2-(6-((5,5-dimethyl-4-azaspiro[2.5]octan-7-yl)oxy)pyridazin-3-yl)isoindolin-1-one], the mrna remaining at 1 µM was found to be 109% and the mrna remaining at 10 µM came to 81%.

Regarding `CN(C)C1CN(c2ccc(N3Cc4c(F)cc(-c5nn(C)nc5Cl)cc4C3=O)nn2)C1` [Compound 647, 6-(5-chloro-2-methyl-2H-1,2,3-triazol-4-yl)-2-(6-(3-(dimethylamino)azetidin-1-yl)pyridazin-3-yl)-4-fluoroisoindolin-1-one], the mrna remaining at 1 µM worked out at 119% and the mrna remaining at 10 µM turned out to be 86%.

For the compound `CC[C@]12CC[C@](C)(C[C@@H](Oc3ccc(N4Cc5ncc(-c6cn(C)nc6C)cc5C4=O)nn3)C1)N2` [Compound 240, 3-(1,3-dimethyl-1H-pyrazol-4-yl)-6-(6-(((1S,3R,5R)-1-ethyl-5-methyl-8-azabicyclo[3.2.1]octan-3-yl)oxy)pyridazin-3-yl)-6,7-dihydro-5H-pyrrolo[3,4-b]pyridin-5-one], the mrna remaining at 1 µM is 87% and the mrna remaining at 10 µM stood at 16%. Further, the EC50 (EC50 of MSH3 downregulation, XtalPi) worked out at 2310 nM.

For `CC1CCN(c2ccc(N3Cc4c(F)cc(-c5nn(C)nc5Cl)cc4C3=O)nn2)CCN1` (stereo not shown) [Compound 668, 6-(5-chloro-2-methyl-2H-1,2,3-triazol-4-yl)-4-fluoro-2-(6-(5-methyl-1,4-diazepan-1-yl)pyridazin-3-yl)isoindolin-1-one], the mrna remaining at 1 µM was 103% and the mrna remaining at 10 µM stood at 13%.

As for `Cc1nn(C)cc1-c1cc2c(cn1)CN(c1ccc(OC3CC(C)(C)NC4(CC4)C3)nn1)C2=O` (stereo not shown) [Compound 59, 6-(1,3-dimethyl-1H-pyrazol-4-yl)-2-(6-((5,5-dimethyl-4-azaspiro[2.5]octan-7-yl)oxy)pyridazin-3-yl)-2,3-dihydro-1H-pyrrolo[3,4-c]pyridin-1-one], the mrna remaining at 1 µM came out at 101% and the mrna remaining at 10 µM stood at 29%.

`CC(C)(O)Cn1cc(-c2cc3c(cn2)CN(c2ccc(O[C@H]4C[C@]5(C)CC[C@](C)(C4)N5)nn2)C3=O)cn1` [Compound 594, 2-(6-(((1R,3s,5S)-1,5-dimethyl-8-azabicyclo[3.2.1]octan-3-yl)oxy)pyridazin-3-yl)-6-(1-(2-hydroxy-2-methylpropyl)-1H-pyrazol-4-yl)-2,3-dihydro-1H-pyrrolo[3,4-c]pyridin-1-one]: the mrna remaining at 1 µM was found to be 79% and the mrna remaining at 10 µM stood at 112%.

Consider `Cc1nn(C)cc1-c1cc(F)c2c(c1)C(=O)N(c1ccc(N(C)C3CC(C)(C)NC(C)(C)C3)nn1)C2` [Compound 275, 6-(1,3-dimethyl-1H-pyrazol-4-yl)-4-fluoro-2-(6-(methyl(2,2,6,6-tetramethylpiperidin-4-yl)amino)pyridazin-3-yl)isoindolin-1-one], for which the mrna remaining at 1 µM turned out to be 79% and the mrna remaining at 10 µM turned out to be 26%.

With `Cc1nn(C)nc1-c1cc(F)c2c(c1)C(=O)N(c1ccc(N3CCC4CCC(C3)N4)nn1)C2` (stereo not shown) [Compound 651, 2-(6-(3,9-diazabicyclo[4.2.1]nonan-3-yl)pyridazin-3-yl)-6-(2,5-dimethyl-2H-1,2,3-triazol-4-yl)-4-fluoroisoindolin-1-one], the mrna remaining at 1 µM is 96% and the mrna remaining at 10 µM was found to be 60%.

For `CC(C)(O)Cn1cc(-c2cc(F)c3c(c2)C(=O)N(c2ccc(OC4CC(C)(C)NC(C)(C)C4)nn2)C3)c(Cl)n1` [Compound 649, 6-(3-chloro-1-(2-hydroxy-2-methylpropyl)-1H-pyrazol-4-yl)-4-fluoro-2-(6-((2,2,6,6-tetramethylpiperidin-4-yl)oxy)pyridazin-3-yl)isoindolin-1-one], the mrna remaining at 1 µM is 106% and the mrna remaining at 10 µM came to 63%.

In general, EC50 refers to the midpoint of the concentration-response curve. A higher EC50 goes with lower potency in that assay.
